Measurements: patent US8809338B2, “1,2,3-triazole-based peptidomimetic integrin inhibitors for the diagnosis and therapy of tumors” (Universita' Degli Studi di Firenze, priority 2010, dated 2014)
“Also recorded” adds a separate entry of the source.

What was measured:
[1] = molecular target: T1, αvβ3 integrin (Homo sapiens, UniProt P05106+P06756); assay: Solid-phase receptor binding assay, [125I]-Echistatin competition, αvβ3; details: for IC50: αvβ3 purified from human placenta, competition with [125I]-Echistatin
T1 construct: purified from human placenta; from tissue; host or cells: human placenta
Description: Solid-phase receptor binding assay. [^125I]-Echistatin, labelled according to the lactoperoxidase method and with a specific activity of 2000 Ci/mmol, and αvβ3 and αvβ5 integrins, purified from human placenta, are used for the in vitro assays. Purified αvβ3 and αvβ5 receptors are respectively diluted to 500 ng/mL and 1000 ng/mL in 20 mM Tris (pH 7.4), 150 mM NaCl, 2 mM CaCl2, 1 mM MgCl2, 1 mM MnCl2. An amount of the diluted receptor solutions (100 μL/well) is added to a 96-well microtiter plate (Optiplate-96 HB, PerkinElmer Life Sciences, Boston, Mass.) and incubated at 4° C. for 16 h. Then, the plate is washed once with an incubation buffer [20 mM Tris (pH 7.4), 150 mM NaCl, 2 mM CaCl2, 1 mM MgCl2, 1 mM MnCl2, 1% BSA] and incubated for additional 2 h at room temperature. The plate is treated twice with the same buffer, and competitive binding experiments are carried out with a fixed concentration of [^125I]-Echistatin (0.05 nM and 0.1 nM for αvβ3 and αvβ5 respectively) and concentrations of the test compounds ranging from 0.01 nM to 100 μM. All the assays are carried out in triplicate at a final volume of 0.2 mL, each containing the following species: 0.05 mL of [^125I]-Echistatina, 0.04 mL of the test compounds, and 0.11 mL of the incubation buffer. Non-specific binding is defined as the [^125I]-Echistatin bound in the presence of excess (1 μM) of non-labelled echistatin. After an incubation period of 3 h at room temperature, the plate is washed three times with the incubation buffer, then the radioactivity is measured in a plate counter Top-Count NXT (Perkin Elmer Life Sciences, Boston, Mass.) using 200 μL/well of scintillating liquid MicroScint-40 (PerkinElmer Life Sciences, Boston, Mass.). Data analysis. IC50 values are determined by fitting the binding inhibition data with a non-linear regression, using the GraphPad Prism 4.0 software package (GraphPad Prism, San Diego, Calif.). […] The inhibition curves better fitted according to a two-sites model (p<0.05) rather than a single-site model are considered to be significant.

[2] = molecular target: T2, αvβ5 integrin (Homo sapiens, UniProt P06756+P18084); assay: Solid-phase receptor binding assay, [125I]-Echistatin competition, αvβ5; details: αvβ5 purified from human placenta; competition with [125I]-Echistatin
T2 construct: purified from human placenta; from tissue; host or cells: human placenta
Description: Solid-phase receptor binding assay. [^125I]-Echistatin, labelled according to the lactoperoxidase method and with a specific activity of 2000 Ci/mmol, and αvβ3 and αvβ5 integrins, purified from human placenta, are used for the in vitro assays. Purified αvβ3 and αvβ5 receptors are respectively diluted to 500 ng/mL and 1000 ng/mL in 20 mM Tris (pH 7.4), 150 mM NaCl, 2 mM CaCl2, 1 mM MgCl2, 1 mM MnCl2. An amount of the diluted receptor solutions (100 μL/well) is added to a 96-well microtiter plate (Optiplate-96 HB, PerkinElmer Life Sciences, Boston, Mass.) and incubated at 4° C. for 16 h. Then, the plate is washed once with an incubation buffer [20 mM Tris (pH 7.4), 150 mM NaCl, 2 mM CaCl2, 1 mM MgCl2, 1 mM MnCl2, 1% BSA] and incubated for additional 2 h at room temperature. […] After an incubation period of 3 h at room temperature, the plate is washed three times with the incubation buffer, then the radioactivity is measured in a plate counter Top-Count NXT (Perkin Elmer Life Sciences, Boston, Mass.) using 200 μL/well of scintillating liquid MicroScint-40 (PerkinElmer Life Sciences, Boston, Mass.). […] IC50 values are determined by fitting the binding inhibition data with a non-linear regression, using the GraphPad Prism 4.0 software package (GraphPad Prism, San Diego, Calif.). […]

[3] = test system: A375M melanoma cell line; assay: Melanoma cell line assay, inhibition of cell adhesion to RGD-containing substrates; type: cell-based, human; details: compounds at 10, 1.0 and 0.1 μM, FIG. 3
Description: A series of experiments carried out using the flux cytometry technique and specific monoclonal antibodies, allowed for the setup of particular human melanoma cells characterized by an over-expression of integrin receptors. Such cells have been used to test the capability of selected compounds of formula (I) at 10, 1.0 and 0.1 μM concentrations, of inhibiting the binding between these cells and suitable substrates containing the RGD sequence, such as vitronectin, fibronectin, and osteopontin (FIG. 3).
Melanoma cell line assay. The selected cell line for this study is the A375M, which are in vivo selected melanoma cells starting from A375P cells isolated from a amelanotic human melanoma. The expression of the RGD-dependent integrinic pattern, comprising αvβ3, αvβ5, α5β1 integrins, of A375M cells is determined by the flux cytometry technique (FACScanto, Becton & Dickinson) and by RT-PCR. With aim to evaluate the ability of compounds of formula (I) of binding to integrins exposed to the melanoma cells surface, the inhibition of adhesion of such cells to vitronectin, fibronectin and osteopontin are measured. A spectrophotometric evaluation of the cellular content of the culture plates used in the adhesion tests allows for the precision and the correlation of the results obtained in different experiments.

| Structure (SMILES) | IC50 [1] [nM] | also measured |
| --- | --- | --- |
| N=C(N)NCCCc1cn(CC(=O)N[C@@H](CC(=O)O)c2ccccc2)nn1 [Compound 38] | 16.4 | IC50 [2]: 1020 nM |
| N=C(N)NCCCc1cn(CC(=O)NC(CC(=O)O)c2ccc(F)cc2)nn1 (centres unmarked) [Compound 48] | 215 | IC50 [2]: 9900 nM; inhibition of adhesion of melanoma cells to fibronectin [3]: minor effect; inhibition of binding of melanoma cells to osteopontin [3]: significantly inhibits; also recorded: minor effect; inhibition of binding of melanoma cells to vitronectin [3]: significantly inhibits |
| N=C(N)NCCCc1cn(CC(=O)NC(CC(=O)O)c2ccc(F)cc2)nn1 (centres unmarked) [Compound 49] | 101 |  |
| Cc1ccc(S(=O)(=O)N(CCn2cc(CCNC(=N)N)nn2)CC(=O)O)cc1 [Compound 52] |  | inhibition at 1 µM ([1]; 1 μM concentration): 54%; inhibition at 10 µM ([1]; 10 μM concentration): 77% |
| N=C(N)NCCCc1cn(CC(=O)N[C@@H](CC(=O)O)c2ccc(O)cc2)nn1 [Compound 54] | 2100 |  |
| N=C(N)NCCCc1cn(CC(=O)NCCC(=O)O)nn1 [Compound 55] | 13 |  |
| O=C(O)C[C@H](NC(=O)Cn1cc(CCCNCc2nc3ccccc3[nH]2)nn1)c1ccc(F)cc1 [Compound 57] | 200 |  |
| N=C(NCCCc1cn(CC(=O)N[C@@H](CC(=O)O)c2ccccc2)nn1)NCCc1ccc(O)cc1 [Compound 59] | 308 |  |
